PMC8875555, “Discovery of Kinase and Carbonic Anhydrase Dual Inhibitors by Machine Learning Classification and Experiments” (Pharmaceuticals, 2022)
Several values for one entry are separate records, joined by “and”; a condition that tells them apart may be missing. Equal entries are not always repeated.

Experiments:
CDK2 = system: CDK2; parameters: method as in PMID 15974571; details: cited from earlier work
CA II [1] = biological target: T1, CA II (Homo sapiens, UniProt P00918); test: Differential scanning fluorimetry (DSF); type: binding; details: 200 µM inhibitor; for CA II ΔTm: shift from apo CA II
Protocol: (§1) The biophysical experiments involved the binding of small molecules to CA I or CA II, which were quantified using the Tm of DSF. The profile was generated by CFX-connect […] (BioRad, Hercules, CA, USA). The solution contained 5× SYPRO® Orange and 0.5 µM recombinant human CA I or CA II in the absence or presence of 200 µM inhibitor. […] The patterns were nonlinearly fitted to the Boltzmann equation to calculate Tm. […] Nonlinear curve fittings for Ki in enzyme assay and Tm in DSF were performed using MATLAB (MathWorks, Natick, MA, USA).

CA II [2] = biological target: T1, CA II; test: CA enzyme inhibition with 4-nitrophenyl acetate as substrate; type: biochemical; details: converted from IC50 by Cheng-Prusoff; 5 nM enzyme, 1 mM substrate, 0.01% Triton X-100, 37 °C
Protocol: (§2) All the reagents used for the biochemical experiments for enzyme inhibitions were bought from Cayman (Ann Harbor, MI, USA), Sigma–Aldrich (St. Louis, MO, USA), Sino Biological (Beijing, China), or Tokyo Chemical Industry (Tokyo, Japan). Inhibitory activities of small molecules on CAs were measured using 4-nitrophenyl acetate as a substrate. […] The changes were measured at 96-well microplates using Epoch2 from BioTek (Winooski, VT, USA). The slope in a time-dependent measurement was calculated by linear regression and interpreted as the quantified activity. Each 200 μL reaction solution comprised 5 nM enzyme and 1 mM substrate buffered using phosphate-buffered saline containing 5% dimethyl sulfoxide and 0.01% (w/v) Triton X-100 under the absence or the presence of inhibitor. […] The substrate-only solution was used as a control to consider autohydrolysis of the substrate. The value of IC50 was converted into Ki using the Cheng–Prusoff equation [66].

CA I [3] = biological target: T2, CA I (Homo sapiens, UniProt P00915); test: as above; type: biochemical; details: converted from IC50 by Cheng-Prusoff; 5 nM enzyme, 1 mM substrate, 0.01% Triton X-100, 37 °C
T2 sequence (P00915 whole entry): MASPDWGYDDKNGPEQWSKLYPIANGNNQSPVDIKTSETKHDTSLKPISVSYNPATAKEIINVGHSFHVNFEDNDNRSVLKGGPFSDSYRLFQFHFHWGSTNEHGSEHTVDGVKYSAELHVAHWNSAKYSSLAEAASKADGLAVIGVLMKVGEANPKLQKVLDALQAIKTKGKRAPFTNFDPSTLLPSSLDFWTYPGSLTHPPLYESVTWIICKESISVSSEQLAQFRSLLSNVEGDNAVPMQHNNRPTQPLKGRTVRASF
Protocol: as §2

CA XII = CA XII (Homo sapiens, UniProt O43570); test: as above; type: biochemical
Sequence of CA XII (O43570 25-354): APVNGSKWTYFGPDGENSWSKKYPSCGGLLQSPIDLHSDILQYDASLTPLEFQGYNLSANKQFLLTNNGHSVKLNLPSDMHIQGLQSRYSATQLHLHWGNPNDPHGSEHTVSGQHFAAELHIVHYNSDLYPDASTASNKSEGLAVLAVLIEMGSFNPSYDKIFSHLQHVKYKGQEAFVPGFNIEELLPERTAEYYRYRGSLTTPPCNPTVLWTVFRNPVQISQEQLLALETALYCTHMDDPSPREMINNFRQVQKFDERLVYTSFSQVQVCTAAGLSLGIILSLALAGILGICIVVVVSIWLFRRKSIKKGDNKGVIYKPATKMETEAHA
Protocol: as §2

CA IX = CA IX (Homo sapiens, UniProt Q16790); test: as above; type: biochemical; details: converted from IC50 by Cheng-Prusoff; 5 nM enzyme, 1 mM substrate, 0.01% Triton X-100, 37 °C
Protocol: as §2

MST1 = system: MST1; parameters: method as in PMID 27535619; details: cited from earlier work
CA I [4] = biological target: T2, CA I; test: Differential scanning fluorimetry (DSF); type: binding; details: 200 µM inhibitor; for CA I ΔTm: shift from apo CA I
Protocol: as §1

MST2 = system: MST2; parameters: method as in PMID 27535619; details: cited from earlier work
SYK = system: SYK; parameters: method as in PMID 12941345; details: cited from earlier work

Row | Compound | CA II ΔTm (CA II [1]) | Ki (CA II [2]) | Ki (CA I [3]) | Ki (CA XII) | Ki (CA IX) | CA II Tm (CA II [1]; 0.5 µM CA II, enzyme alone 52.6 ± 0.2) | CA I Tm (CA I [4]; 0.5 µM CA I, enzyme alone 56.2 ± 0.1) | CA I ΔTm (CA I [4]) | weaker in inhibiting CA XII (CA XII; compared with CA I, CA II and CA IX) | IC50 (CDK2) | IC50 (MST1) | IC50 (MST2) | IC50 (SYK)
1 | Nc1nc(Nc2ccc(S(N)(=O)=O)cc2)nn1C(=S)Nc1c(F)cccc1F [Compound 5946, CDK1/2 inhibitor III] | 3.2 degrees | 149 ± 21 nM | 258 ± 58 nM | 254 ± 40 nM | 100 ± 28 nM |  |  |  |  | 0.5 nM |  |  | 
2 | CN1C(=O)c2sccc2N(C)c2nc(Nc3ccc(S(N)(=O)=O)cc3)ncc21 [XMU-MP-1] | 7.3 degrees | ~30 nM and 24 nM | ~30 nM and 32 nM | 1000 nM | ~30 nM and 31 nM | 59.9±0.2 °C | 61.9±0.2 °C | 5.7 degrees | approximately 30 fold |  | 71 nM | 31 nM | 
3 | Cc1ccc(Nc2nccc(N(C)c3ccc4c(C)n(C)nc4c3)n2)cc1S(N)(=O)=O [Compound 5698, pazopanib] |  | 242 ± 32 nM | 67 ± 10 nM | 800 ± 300 nM | 1700 ± 500 nM |  |  |  |  |  |  |  | 

Continued, in another order:

Row | CA II ΔTm (CA II [1]) | Ki (CA II [2]) | Ki (CA I [3]) | Ki (CA XII) | Ki (CA IX) | CA II Tm (CA II [1]; 0.5 µM CA II, enzyme alone 52.6 ± 0.2) | CA I Tm (CA I [4]; 0.5 µM CA I, enzyme alone 56.2 ± 0.1) | CA I ΔTm (CA I [4]) | weaker in inhibiting CA XII (CA XII; compared with CA I, CA II and CA IX) | Compound | IC50 (CDK2) | IC50 (MST1) | IC50 (MST2) | IC50 (SYK)
4 | 0.2 degrees | 16000 ± 5000 nM | 60000 ± 9000 nM | 13000 ± 4000 nM | 2700 ± 300 nM |  |  | 0.1 degrees |  | Cn1cc(/C=C2\C(=O)Nc3ccc(S(N)(=O)=O)cc32)c2ccccc21 [Compound 6046] |  |  |  | […]
5 | […] | […] | 207 ± 66 nM | […] | 220 ± 32 nM |  |  | […] |  | Nc1nc(Nc2ccc(S(N)(=O)=O)cc2)nn1C(=O)c1c(F)cccc1F [Compound 5932, JNJ-7706621] | […] |  |  | 
